Data reported in the supplement of paper PMC10307832.

Key:
Experiment in all cases: relative viability (nuclei count vs DMSO), 5 days (fraction); higher = more cells survive
[1] = system: SW 900
In short: (§1)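 A single step with final 0.05% Triton X-100, 1% formaldehyde and 1 ug/ml Hoechst fixed the cells and stained nuclei 5 days after treatment. Lung cancer cell lines in 1536-well plates had been treated by pin tool the day after seeding with one drug alone or a fixed anchor-drug dose plus five library-drug doses (not always all listed) in √10 steps, and nuclei were counted on 4× images. Relative viability is the ratio of nuclei in treated wells to nuclei in vehicle wells, taken as the median of duplicate plates.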

[2] = system: EKVX
In short: as §1

[3] = system: COR-L23
In short: as §1

[4] = system: SW 1573
In short: as §1

[5] = system: NCI-H1793
In short: as §1

[6] = system: HCC-44
In short: as §1

[7] = system: NCI-H460
In short: as §1

[8] = system: LK-2
In short: as §1

[9] = system: NCI-H2228
In short: as §1

[10] = system: NCI-H520
In short: as §1

[11] = system: EMC-BAC-2
In short: as §1

[12] = system: LXF-289
In short: as §1

[13] = system: NCI-H1650
In short: as §1

[14] = system: NCI-H1651
In short: as §1

[15] = system: NCI-H1915
In short: as §1

[16] = system: NCI-H2347
In short: as §1

[17] = system: NCI-H661
In short: as §1

[18] = system: A-427
In short: as §1

[19] = system: NCI-H2087
In short: as §1

[20] = system: BEN
In short: as §1

[21] = system: EPLC-272H
In short: as §1

[22] = system: NCI-H358
In short: as §1

Structure (SMILES): COCC1(CO)C(=O)C2CCN1CC2 (centres undefined) [PRIMA-1MET] + CC(=O)Nc1cccc(-n2c(=O)n(C3CC3)c(=O)c3c(Nc4ccc(I)cc4F)n(C)c(=O)c(C)c32)c1 [Trametinib] (partner 0.02 µM)
- relative viability ([1]; first compound 0.2 µM): 0.615
- relative viability ([1]; first compound 0.6325 µM): 0.765
- relative viability ([1]; first compound 6.325 µM): 0.676
- relative viability ([1]; first compound 20 µM): 0.131
- relative viability ([2]; first compound 0.2 µM): 0.344
- relative viability ([2]; first compound 2 µM): 0.283
- relative viability ([2]; first compound 6.325 µM): 0.233
- relative viability ([2]; first compound 20 µM): 0.243
- relative viability ([3]; first compound 0.2 µM): 0.247
- relative viability ([3]; first compound 0.6325 µM): 0.532
- relative viability ([3]; first compound 2 µM): 0.495
- relative viability ([3]; first compound 6.325 µM): 0.357
- relative viability ([3]; first compound 20 µM): 0.0237
- relative viability ([4]; first compound 0.2 µM): 0.604
- relative viability ([4]; first compound 0.6325 µM): 0.54
- relative viability ([4]; first compound 2 µM): 0.409
- relative viability ([4]; first compound 6.325 µM): 0.0772
- relative viability ([4]; first compound 20 µM): 0.024
- relative viability ([5]; first compound 0.2 µM): 0.365
- relative viability ([5]; first compound 0.6325 µM): 0.41
- relative viability ([5]; first compound 6.325 µM): 0.361
- relative viability ([5]; first compound 20 µM): 0.517
- relative viability ([6]; first compound 0.2 µM): 1.01
- relative viability ([6]; first compound 0.6325 µM): 0.951
- relative viability ([6]; first compound 2 µM): 1.12
- relative viability ([6]; first compound 6.325 µM): 1.07
- relative viability ([6]; first compound 20 µM): 1.03
- relative viability ([7]; first compound 0.2 µM): 0.0362
- relative viability ([7]; first compound 0.6325 µM): 0.0885
- relative viability ([7]; first compound 2 µM): 0.0744
- relative viability ([7]; first compound 6.325 µM): 0.136
- relative viability ([7]; first compound 20 µM): 0.0091
- relative viability ([8]; first compound 0.2 µM): 0.477
- relative viability ([8]; first compound 0.6325 µM): 0.766
- relative viability ([8]; first compound 2 µM): 0.357
- relative viability ([8]; first compound 6.325 µM): 0.455
- relative viability ([8]; first compound 20 µM): 0.199
- relative viability ([9]; first compound 0.2 µM): 0.197
- relative viability ([9]; first compound 0.6325 µM): 0.371
- relative viability ([9]; first compound 2 µM): 0.822
- relative viability ([9]; first compound 6.325 µM): 0.335
- relative viability ([9]; first compound 20 µM): 0.0574
- relative viability ([10]; first compound 0.2 µM): 0.463
- relative viability ([10]; first compound 2 µM): 0.455
- relative viability ([10]; first compound 6.325 µM): 0.76
- relative viability ([10]; first compound 20 µM): 0.0736
- relative viability ([11]; first compound 0.2 µM): 0.637
- relative viability ([11]; first compound 0.6325 µM): 0.904
- relative viability ([11]; first compound 2 µM): 0.907
- relative viability ([11]; first compound 6.325 µM): 0.734
- relative viability ([11]; first compound 20 µM): 0.91
- relative viability ([12]; first compound 0.2 µM): 0.582
- relative viability ([12]; first compound 0.6325 µM): 0.591
- relative viability ([12]; first compound 2 µM): 0.67
- relative viability ([12]; first compound 6.325 µM): 0.651
- relative viability ([12]; first compound 20 µM): 0.659
- relative viability ([13]; first compound 0.2 µM): 0.545
- relative viability ([13]; first compound 0.6325 µM): 0.48
- relative viability ([13]; first compound 2 µM): 0.636
- relative viability ([13]; first compound 6.325 µM): 0.595
- relative viability ([13]; first compound 20 µM): 0.0646
- relative viability ([14]; first compound 0.2 µM): 0.826
- relative viability ([14]; first compound 0.6325 µM): 0.562
- relative viability ([14]; first compound 2 µM): 0.842
- relative viability ([14]; first compound 6.325 µM): 0.849
- relative viability ([14]; first compound 20 µM): 0.848
- relative viability ([15]; first compound 0.2 µM): 0.166
- relative viability ([15]; first compound 0.6325 µM): 0.246
- relative viability ([15]; first compound 2 µM): 0.248
- relative viability ([15]; first compound 6.325 µM): 0.218
- relative viability ([15]; first compound 20 µM): 0.31
- relative viability ([16]; first compound 0.2 µM): 0.286
- relative viability ([16]; first compound 0.6325 µM): 0.303
- relative viability ([16]; first compound 2 µM): 0.255
- relative viability ([16]; first compound 6.325 µM): 0.225
- relative viability ([16]; first compound 20 µM): 0.24
- relative viability ([17]; first compound 0.2 µM): 0.506
- relative viability ([17]; first compound 0.6325 µM): 0.492
- relative viability ([17]; first compound 2 µM): 0.547
- relative viability ([17]; first compound 6.325 µM): 0.552
- relative viability ([17]; first compound 20 µM): 0.503
- relative viability ([18]; first compound 0.2 µM): 0.533
- relative viability ([18]; first compound 0.6325 µM): 0.585
- relative viability ([18]; first compound 2 µM): 0.786
- relative viability ([18]; first compound 6.325 µM): 0.692
- relative viability ([18]; first compound 20 µM): 0.785
- relative viability ([19]; first compound 0.6325 µM): 0.185
- relative viability ([19]; first compound 2 µM): 0.19
- relative viability ([19]; first compound 6.325 µM): 0.168
- relative viability ([19]; first compound 20 µM): 0.117
- relative viability ([20]; first compound 0.2 µM): 1.12
- relative viability ([20]; first compound 0.6325 µM): 0.926
- relative viability ([20]; first compound 6.325 µM): 1.03
- relative viability ([20]; first compound 20 µM): 1.07
- relative viability ([21]; first compound 0.2 µM): 0.281
- relative viability ([21]; first compound 0.6325 µM): 0.303
- relative viability ([21]; first compound 2 µM): 0.272
- relative viability ([21]; first compound 6.325 µM): 0.29
- relative viability ([21]; first compound 20 µM): 0.216
- relative viability ([22]; first compound 0.2 µM): 0.137
- relative viability ([22]; first compound 0.6325 µM): 0.134
- relative viability ([22]; first compound 2 µM): 0.108
- relative viability ([22]; first compound 6.325 µM): 0.108
- relative viability ([22]; first compound 20 µM): 0.0807
